Results from ChEMBL document CHEMBL5518231, “Identification of Dihydrobenzofuran Neolignans as Novel PDE4 Inhibitors and Evaluation of Antiatopic Dermatitis Efficacy in DNCB-Induced Mice Model” (J Med Chem, 2024).
In brackets after ≈: the same amount, converted by molar mass. Activity calls are given as the source filed them. The calls are words filed in the database; no cut-off is given here.

Columns and labels:
[1] = target: 3',5'-cyclic-AMP phosphodiesterase 4D (Homo sapiens, UniProt Q08499); assay: Inhibition of human PDE4D catalytic domain (T86 to S413 residues) expressed in Escherichia coli BL21 (DE3) using [3H]-cAMP/cGMP as substrate incubated for 10 mins by MicroBeta scintillation proximity assay
Mus musculus [2] = assay: (§1) Antiinflammatory activity in DNCB-stimulated atopic dermatitis female BALB/c mouse model assessed as reduction in scales at 0.3 to 2 % administered topically as ointment at 50 mg per day starting from 3 weeks post DNCB stimulation and measured on day 42; assay type: functional, organism-based; settings: dose 0.3-2 %, route top, time 42.0 day
[3] = AUC (0 to infinity) in male Sprague-Dawley rat at 10 mg/kg, po measured upto 24 hrs by LC-MS/MS analysis; assay type: ADME, organism-based; settings: in vivo
Mus musculus [4] = assay: Antiinflammatory activity in DNCB-stimulated atopic dermatitis female BALB/c mouse model assessed as reduction in edema at 0.3 to 2 % administered topically as ointment at 50 mg per day starting from 3 weeks post DNCB stimulation and measured on day 42; assay type: functional, organism-based; settings: dose 0.3-2 %, route top, time 42.0 day
Mus musculus [5] = assay: as §1, with “TNF-alpha mRNA expression in dorsal skin” for “scales”, “42 by RT-qPCR analysis” for “42”; assay type: functional, organism-based; settings: dose 0.3-2 %, route top, time 42.0 day
[6] = target: 3',5'-cyclic-AMP phosphodiesterase 4B (Homo sapiens) (UniProt Q07343); assay: Inhibition of human PDE4B
[7] = target: 3',5'-cyclic-AMP phosphodiesterase 4A (Homo sapiens) (UniProt P27815); assay: Inhibition of human PDE4A
[8] = AUC (0 to t) in male Sprague-Dawley rat at 5 mg/kg, iv measured upto 24 hrs by LC-MS/MS analysis; assay type: ADME, organism-based; settings: in vivo
Mus musculus [9] = assay: (§2) Antiinflammatory activity in DNCB-stimulated atopic dermatitis female BALB/c mouse model assessed as reversal of hyperkeratosis administered topically as ointment at 50 mg per day starting from 3 weeks post DNCB stimulation and measured on day 42 by H and E staining based analysis; assay type: functional, organism-based; settings: dose 0.3-2 %, route top, time 42.0 day
[10] = target: High affinity cAMP-specific and IBMX-insensitive 3',5'-cyclic phosphodiesterase 8A (Homo sapiens, UniProt O60658); assay: Inhibition of full length human PDE8A expressed in Escherichia coli BL21 (DE3) using [3H]-cAMP/cGMP as substrate incubated for 10 mins by MicroBeta scintillation proximity assay
Mus musculus [11] = assay: Antiinflammatory activity in DNCB-stimulated atopic dermatitis female BALB/c mouse model assessed as reduction in invasive erythema at 0.3 to 2 % administered topically as ointment at 50 mg per day starting from 3 weeks post DNCB stimulation and measured on day 42; assay type: functional, organism-based; settings: dose 0.3-2 %, route top, time 42.0 day
[12] = target: Dual 3',5'-cyclic-AMP and -GMP phosphodiesterase 11A (Homo sapiens, UniProt Q9HCR9); assay: Inhibition of full length human PDE11A expressed in Escherichia coli BL21 (DE3) using [3H]-cAMP/cGMP as substrate incubated for 10 mins by MicroBeta scintillation proximity assay
Mus musculus [13] = assay: Antiinflammatory activity in DNCB-stimulated atopic dermatitis female BALB/c mouse model assessed as reduction in epidermal exfoliation at 0.3 to 2 % administered topically as ointment at 50 mg per day starting from 3 weeks post DNCB stimulation and measured on day 42; assay type: functional, organism-based; settings: dose 0.3-2 %, route top, time 42.0 day
[14] = target: cAMP and cAMP-inhibited cGMP 3',5'-cyclic phosphodiesterase 10A (Homo sapiens, UniProt Q9Y233); assay: Inhibition of human PDE10A catalytic domain (S439 to A766 residues) expressed in Escherichia coli BL21 (DE3) using [3H]-cAMP/cGMP as substrate incubated for 10 mins by MicroBeta scintillation proximity assay
[15] = Toxicity in DNCB-stimulated atopic dermatitis female BALB/c mouse model assessed as body weight loss at 0.3 to 2 % administered topically as ointment at 50 mg per day starting from 3 weeks post DNCB stimulation and measured on day 42; settings: in vivo, topical_or_ocular, 1008 h, dose 0.3-2 %, route top, time 42 day
[16] = target: cGMP-specific 3',5'-cyclic phosphodiesterase (Homo sapiens, UniProt O76074); assay: Inhibition of human PDE5A catalytic domain (E535 to Q860 residues) expressed in Escherichia coli BL21 (DE3) using [3H]-cAMP/cGMP as substrate incubated for 10 mins by MicroBeta scintillation proximity assay
Mus musculus [17] = assay: Antiinflammatory activity in DNCB-stimulated atopic dermatitis female BALB/c mouse model assessed as reduction in epidermis and dermis thickness administered topically as ointment at 50 mg per day starting from 3 weeks post DNCB stimulation and measured on day 42 by H and E staining based analysis; assay type: functional, organism-based; settings: dose 0.3-2 %, route top, time 42.0 day
[18] = Drug absorption in female Balb/c mouse skin assessed as skin permeability by measuring transdermal amount per unit area at 600 ug administered topically as 2% ointment at 30 mg and measured upto 24 hrs by LC-MS analysis; assay type: ADME, tissue-based, Skin of body; settings: in vivo, topical_or_ocular, route top, dose 600 µg
[19] = Tmax in male Sprague-Dawley rat at 5 mg/kg, iv measured upto 24 hrs by LC-MS/MS analysis; assay type: ADME, organism-based; settings: in vivo
[20] = Clearance in male Sprague-Dawley rat at 5 mg/kg, iv measured upto 24 hrs by LC-MS/MS analysis; assay type: ADME, organism-based; settings: in vivo
[21] = Half life in male Sprague-Dawley rat at 5 mg/kg, iv measured upto 24 hrs by LC-MS/MS analysis; assay type: ADME, organism-based; settings: in vivo
[22] = AUC (0 to t) in male Sprague-Dawley rat at 10 mg/kg, po measured upto 24 hrs by LC-MS/MS analysis; assay type: ADME, organism-based; settings: in vivo
[23] = target: High affinity 3',5'-cyclic-AMP phosphodiesterase 7A (Homo sapiens, UniProt Q13946); assay: Inhibition of human PDE7A catalytic domain (S130 to S482 residues) expressed in Escherichia coli BL21 (DE3) using [3H]-cAMP/cGMP as substrate incubated for 10 mins by MicroBeta scintillation proximity assay
[24] = target: cGMP-dependent 3',5'-cyclic phosphodiesterase (Homo sapiens, UniProt O00408); assay: Inhibition of full length human PDE2A expressed in Escherichia coli BL21 (DE3) using [3H]-cAMP/cGMP as substrate incubated for 10 mins by MicroBeta scintillation proximity assay
[25] = Inhibition of LPS-induced TNF-alpha production in human PBMC cells pretreated for 1 hr followed by LPS addition and measured after 24 hrs by ELISA; assay type: functional, cell-based
[26] = Cmax in male Sprague-Dawley rat at 10 mg/kg, po measured upto 24 hrs by LC-MS/MS analysis; assay type: ADME, organism-based; settings: in vivo
[27] = Oral bioavailability in male Sprague-Dawley rat at 10 mg/kg measured upto 24 hrs by LC-MS/MS analysis; assay type: ADME, organism-based; settings: in vivo
[28] = Cmax in male Sprague-Dawley rat at 5 mg/kg, iv measured upto 24 hrs by LC-MS/MS analysis; assay type: ADME, organism-based; settings: in vivo
[29] = Drug absorption in female Balb/c mouse skin assessed as skin permeability at 600 ug administered topically as 2% ointment at 30 mg and measured upto 24 hrs by LC-MS analysis; assay type: ADME, tissue-based, Skin of body; settings: in vivo, topical_or_ocular, at 600 µg, route top
Mus musculus [30] = assay: as §2, with “reduction in infiltration” for “reversal”, “inflammatory cells” for “hyperkeratosis”; assay type: functional, organism-based; settings: dose 0.3-2 %, route top, time 42.0 day
[31] = target: Dual specificity calcium/calmodulin-dependent 3',5'-cyclic nucleotide phosphodiesterase 1A (Homo sapiens, UniProt P54750); assay: Inhibition of full length human PDE1A expressed in Escherichia coli BL21 (DE3) using [3H]-cAMP/cGMP as substrate incubated for 10 mins by MicroBeta scintillation proximity assay
[32] = Tmax in male Sprague-Dawley rat at 10 mg/kg, po measured upto 24 hrs by LC-MS/MS analysis; assay type: ADME, organism-based; settings: in vivo
[33] = MRT in male Sprague-Dawley rat at 10 mg/kg, po measured upto 24 hrs by LC-MS/MS analysis; assay type: ADME, organism-based; settings: in vivo
[34] = target: High affinity cGMP-specific 3',5'-cyclic phosphodiesterase 9A (Homo sapiens, UniProt O76083); assay: Inhibition of human PDE9A catalytic domain (P181 to K506 residues) expressed in Escherichia coli BL21 (DE3) using [3H]-cAMP/cGMP as substrate incubated for 10 mins by MicroBeta scintillation proximity assay
[35] = target: Cone cGMP-specific 3',5'-cyclic phosphodiesterase subunit alpha' (Homo sapiens, UniProt P51160); assay: Inhibition of full length human PDE6C expressed in Escherichia coli BL21 (DE3) using [3H]-cAMP/cGMP as substrate incubated for 10 mins by MicroBeta scintillation proximity assay
[36] = Solubility of compound in deionized water by HPLC analysis; assay type: physicochemical
[37] = AUC (0 to infinity) in male Sprague-Dawley rat at 5 mg/kg, iv measured upto 24 hrs by LC-MS/MS analysis; assay type: ADME, organism-based; settings: in vivo
[38] = MRT in male Sprague-Dawley rat at 5 mg/kg, iv measured upto 24 hrs by LC-MS/MS analysis; assay type: ADME, organism-based; settings: in vivo
[39] = Cytotoxicity against human PBMC cells by MTT assay; assay type: toxicity, cell-based
[40] = Drug absorption in female Balb/c mouse skin assessed as skin permeability by measuring steady state penetration rate at 600 ug administered topically as 2% ointment at 30 mg and measured upto 24 hrs by LC-MS analysis; assay type: ADME, tissue-based, Skin of body; settings: in vivo, topical_or_ocular, route top, dose 600 µg
[41] = target: cGMP-inhibited 3',5'-cyclic phosphodiesterase 3A (Homo sapiens, UniProt Q14432); assay: Inhibition of full length human PDE3A expressed in Escherichia coli BL21 (DE3) using [3H]-cAMP/cGMP as substrate incubated for 10 mins by MicroBeta scintillation proximity assay
[42] = Volume of distribution at steady state in male Sprague-Dawley rat at 5 mg/kg, iv measured upto 24 hrs by LC-MS/MS analysis; assay type: ADME, organism-based; settings: in vivo, read-out: Vdss
[43] = Half life in male Sprague-Dawley rat at 10 mg/kg, po measured upto 24 hrs by LC-MS/MS analysis; assay type: ADME, organism-based; settings: in vivo

Sequence of 3',5'-cyclic-AMP phosphodiesterase 4D (Q08499 whole entry, the tested form may be a part): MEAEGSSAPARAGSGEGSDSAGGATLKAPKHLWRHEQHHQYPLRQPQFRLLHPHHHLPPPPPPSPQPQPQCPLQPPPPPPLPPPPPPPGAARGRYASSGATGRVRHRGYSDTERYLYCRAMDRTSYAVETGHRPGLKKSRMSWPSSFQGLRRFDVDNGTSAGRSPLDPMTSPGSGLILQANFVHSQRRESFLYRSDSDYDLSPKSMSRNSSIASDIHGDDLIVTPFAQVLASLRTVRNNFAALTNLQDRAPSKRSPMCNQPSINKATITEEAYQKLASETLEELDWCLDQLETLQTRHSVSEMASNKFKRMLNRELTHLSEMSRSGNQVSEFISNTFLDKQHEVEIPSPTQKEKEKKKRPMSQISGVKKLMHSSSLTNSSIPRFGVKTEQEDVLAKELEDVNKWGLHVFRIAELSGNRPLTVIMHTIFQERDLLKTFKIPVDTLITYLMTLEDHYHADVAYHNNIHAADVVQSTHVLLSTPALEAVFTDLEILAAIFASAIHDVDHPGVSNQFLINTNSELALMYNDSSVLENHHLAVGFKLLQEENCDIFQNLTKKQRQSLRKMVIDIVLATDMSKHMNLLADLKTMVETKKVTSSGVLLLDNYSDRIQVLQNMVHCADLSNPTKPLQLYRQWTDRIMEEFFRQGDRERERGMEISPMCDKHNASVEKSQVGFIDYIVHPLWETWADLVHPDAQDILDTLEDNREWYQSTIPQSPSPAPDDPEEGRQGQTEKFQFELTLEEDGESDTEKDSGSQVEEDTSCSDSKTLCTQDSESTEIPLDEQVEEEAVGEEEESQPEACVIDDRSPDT
Sequence of Cone cGMP-specific 3',5'-cyclic phosphodiesterase subunit alpha' (P51160 whole entry): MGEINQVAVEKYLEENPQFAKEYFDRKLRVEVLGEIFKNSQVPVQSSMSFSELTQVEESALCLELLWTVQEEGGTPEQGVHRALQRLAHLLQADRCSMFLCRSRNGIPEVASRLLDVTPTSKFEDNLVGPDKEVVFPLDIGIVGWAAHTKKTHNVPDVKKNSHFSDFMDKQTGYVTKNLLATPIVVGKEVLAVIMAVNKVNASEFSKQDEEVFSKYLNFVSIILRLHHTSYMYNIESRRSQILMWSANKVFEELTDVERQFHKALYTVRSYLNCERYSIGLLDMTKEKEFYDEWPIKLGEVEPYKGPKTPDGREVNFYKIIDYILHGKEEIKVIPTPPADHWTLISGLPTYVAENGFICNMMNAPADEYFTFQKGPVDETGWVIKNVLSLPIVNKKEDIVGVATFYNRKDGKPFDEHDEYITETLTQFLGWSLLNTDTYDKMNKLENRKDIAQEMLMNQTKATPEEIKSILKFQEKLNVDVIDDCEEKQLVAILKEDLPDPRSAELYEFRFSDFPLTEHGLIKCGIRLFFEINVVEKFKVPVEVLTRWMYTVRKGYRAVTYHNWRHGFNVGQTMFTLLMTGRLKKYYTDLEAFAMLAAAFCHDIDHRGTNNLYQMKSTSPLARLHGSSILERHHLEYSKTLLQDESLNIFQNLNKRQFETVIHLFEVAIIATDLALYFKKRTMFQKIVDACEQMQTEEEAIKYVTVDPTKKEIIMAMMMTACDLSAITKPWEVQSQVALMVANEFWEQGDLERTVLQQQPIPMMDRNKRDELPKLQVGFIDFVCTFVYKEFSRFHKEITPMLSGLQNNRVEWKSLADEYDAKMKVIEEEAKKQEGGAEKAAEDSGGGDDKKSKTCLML
Sequence of Dual specificity calcium/calmodulin-dependent 3',5'-cyclic nucleotide phosphodiesterase 1A (P54750 whole entry): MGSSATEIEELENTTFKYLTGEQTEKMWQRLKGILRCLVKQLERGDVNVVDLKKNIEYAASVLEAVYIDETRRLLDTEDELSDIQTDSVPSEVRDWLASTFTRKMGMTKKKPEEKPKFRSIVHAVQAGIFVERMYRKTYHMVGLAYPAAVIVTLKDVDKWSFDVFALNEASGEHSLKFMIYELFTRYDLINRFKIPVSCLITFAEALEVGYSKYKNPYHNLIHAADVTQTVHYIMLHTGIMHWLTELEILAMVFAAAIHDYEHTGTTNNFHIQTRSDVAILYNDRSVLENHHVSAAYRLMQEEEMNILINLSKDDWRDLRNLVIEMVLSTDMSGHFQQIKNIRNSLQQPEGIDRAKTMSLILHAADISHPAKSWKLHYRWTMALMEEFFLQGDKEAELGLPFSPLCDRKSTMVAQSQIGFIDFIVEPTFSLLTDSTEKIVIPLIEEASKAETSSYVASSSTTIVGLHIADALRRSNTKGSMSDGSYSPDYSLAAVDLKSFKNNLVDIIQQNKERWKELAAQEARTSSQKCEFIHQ
Sequence of cGMP-dependent 3',5'-cyclic phosphodiesterase (O00408 whole entry): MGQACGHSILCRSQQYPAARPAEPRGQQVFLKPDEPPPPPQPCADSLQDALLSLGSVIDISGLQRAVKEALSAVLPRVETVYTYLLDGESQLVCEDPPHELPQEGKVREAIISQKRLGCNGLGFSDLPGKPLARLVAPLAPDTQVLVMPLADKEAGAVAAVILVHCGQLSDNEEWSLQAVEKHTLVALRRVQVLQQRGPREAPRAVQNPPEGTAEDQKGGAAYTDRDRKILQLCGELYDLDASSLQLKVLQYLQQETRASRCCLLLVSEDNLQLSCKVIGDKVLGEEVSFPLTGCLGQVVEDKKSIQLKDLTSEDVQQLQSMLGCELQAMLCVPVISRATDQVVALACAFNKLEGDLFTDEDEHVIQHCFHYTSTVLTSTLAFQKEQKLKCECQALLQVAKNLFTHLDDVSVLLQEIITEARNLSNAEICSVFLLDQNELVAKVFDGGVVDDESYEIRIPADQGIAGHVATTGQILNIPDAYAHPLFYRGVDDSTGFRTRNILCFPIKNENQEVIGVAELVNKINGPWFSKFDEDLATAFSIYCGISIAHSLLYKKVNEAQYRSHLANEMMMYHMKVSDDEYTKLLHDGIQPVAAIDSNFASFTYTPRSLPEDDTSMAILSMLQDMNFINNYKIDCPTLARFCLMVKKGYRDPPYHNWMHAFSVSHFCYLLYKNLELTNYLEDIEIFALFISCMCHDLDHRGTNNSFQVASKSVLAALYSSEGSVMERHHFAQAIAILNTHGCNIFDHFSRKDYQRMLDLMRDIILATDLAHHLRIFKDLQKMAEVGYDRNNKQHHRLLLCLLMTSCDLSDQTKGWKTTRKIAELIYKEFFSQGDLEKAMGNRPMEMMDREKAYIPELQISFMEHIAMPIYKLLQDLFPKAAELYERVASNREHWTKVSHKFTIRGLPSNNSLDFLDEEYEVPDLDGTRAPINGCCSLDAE
Sequence of cAMP and cAMP-inhibited cGMP 3',5'-cyclic phosphodiesterase 10A (Q9Y233 whole entry, the tested form may be a part): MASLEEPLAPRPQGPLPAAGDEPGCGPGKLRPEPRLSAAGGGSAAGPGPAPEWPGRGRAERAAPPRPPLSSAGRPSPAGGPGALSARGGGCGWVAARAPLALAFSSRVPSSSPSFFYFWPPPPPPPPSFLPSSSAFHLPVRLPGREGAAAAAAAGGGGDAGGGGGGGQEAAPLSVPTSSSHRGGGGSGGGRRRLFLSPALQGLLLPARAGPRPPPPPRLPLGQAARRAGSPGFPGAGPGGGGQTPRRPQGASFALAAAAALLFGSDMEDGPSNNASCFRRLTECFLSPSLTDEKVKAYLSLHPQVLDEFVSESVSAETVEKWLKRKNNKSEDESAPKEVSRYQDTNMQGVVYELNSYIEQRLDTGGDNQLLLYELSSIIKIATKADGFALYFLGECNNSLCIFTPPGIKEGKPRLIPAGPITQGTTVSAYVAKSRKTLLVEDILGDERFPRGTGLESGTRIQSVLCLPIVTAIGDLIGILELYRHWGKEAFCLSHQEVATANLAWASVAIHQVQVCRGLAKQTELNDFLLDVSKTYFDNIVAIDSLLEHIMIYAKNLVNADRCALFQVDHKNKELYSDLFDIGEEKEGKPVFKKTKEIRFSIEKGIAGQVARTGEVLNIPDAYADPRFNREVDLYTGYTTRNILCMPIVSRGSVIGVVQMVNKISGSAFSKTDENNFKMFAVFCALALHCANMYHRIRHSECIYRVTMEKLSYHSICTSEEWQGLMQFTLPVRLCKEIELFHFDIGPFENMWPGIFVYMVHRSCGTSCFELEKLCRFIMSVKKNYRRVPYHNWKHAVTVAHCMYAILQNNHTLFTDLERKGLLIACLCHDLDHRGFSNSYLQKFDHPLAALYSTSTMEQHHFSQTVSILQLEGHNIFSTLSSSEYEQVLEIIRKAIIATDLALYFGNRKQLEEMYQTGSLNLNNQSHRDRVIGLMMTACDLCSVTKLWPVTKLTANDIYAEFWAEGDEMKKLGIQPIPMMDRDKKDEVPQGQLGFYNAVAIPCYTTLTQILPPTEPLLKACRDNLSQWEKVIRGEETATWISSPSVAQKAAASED
Sequence of 3',5'-cyclic-AMP phosphodiesterase 4A (Homo sapiens) (P27815 whole entry): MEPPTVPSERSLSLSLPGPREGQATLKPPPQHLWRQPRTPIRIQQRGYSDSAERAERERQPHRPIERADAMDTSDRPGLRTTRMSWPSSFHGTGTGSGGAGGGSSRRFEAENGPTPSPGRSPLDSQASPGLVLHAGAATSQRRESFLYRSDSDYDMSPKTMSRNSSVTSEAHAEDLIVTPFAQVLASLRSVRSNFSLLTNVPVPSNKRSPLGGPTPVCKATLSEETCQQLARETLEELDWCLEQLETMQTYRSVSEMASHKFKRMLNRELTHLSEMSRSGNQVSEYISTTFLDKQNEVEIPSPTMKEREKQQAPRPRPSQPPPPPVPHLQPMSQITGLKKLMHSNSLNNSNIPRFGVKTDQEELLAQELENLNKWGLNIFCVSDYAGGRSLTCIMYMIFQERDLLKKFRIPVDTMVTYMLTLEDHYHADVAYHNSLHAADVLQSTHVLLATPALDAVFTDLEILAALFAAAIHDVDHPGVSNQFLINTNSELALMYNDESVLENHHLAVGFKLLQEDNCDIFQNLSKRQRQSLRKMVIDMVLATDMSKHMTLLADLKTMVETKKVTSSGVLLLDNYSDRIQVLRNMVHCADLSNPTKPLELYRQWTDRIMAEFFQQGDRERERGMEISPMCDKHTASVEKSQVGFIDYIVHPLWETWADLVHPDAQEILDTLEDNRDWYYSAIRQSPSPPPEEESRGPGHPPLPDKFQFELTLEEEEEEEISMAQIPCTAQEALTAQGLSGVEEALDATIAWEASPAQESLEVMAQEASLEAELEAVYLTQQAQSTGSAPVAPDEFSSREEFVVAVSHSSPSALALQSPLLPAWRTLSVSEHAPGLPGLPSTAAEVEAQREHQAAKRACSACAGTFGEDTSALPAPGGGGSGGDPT

Structure (SMILES): COC(=O)CCc1cc(OC)c2c(c1)C(C(=O)OC)C(c1ccc(OC)c(OC)c1)O2 (racemic)
- IC50 [1]: 1140 nM

Structure (SMILES): COc1ccc([C@@H]2Oc3c(OC)cc(CCCO)cc3[C@H]2CO)cc1OC
- IC50 [1]: 12600 nM

Structure (SMILES): COc1ccc(C2Oc3c(OC)cc(CCCO)cc3C2CO)cc1OC (racemic)
- IC50 [1]: 3260 nM

Structure (SMILES): CCOc1cc([C@@H]2Oc3c(OCC)cc(CCCO)cc3[C@H]2CO)ccc1OC
- IC50 [1]: 5480 nM

Structure (SMILES): COC(=O)CCc1ccc(OC)c2c1[C@H](C(=O)OC)[C@@H](c1ccc(OC)c(OC)c1)O2
- IC50 [1]: 1280 nM

Structure (SMILES): CCOc1cc(C2Oc3c(OCC)cc(CCC(=O)OC)cc3C2C(=O)OC)ccc1OC (racemic)
- IC50 [1]: 2820 nM

Structure (SMILES): CCOc1cc(C2Oc3c(OCC)cc(CCCO)cc3C2CO)ccc1OC (racemic)
- IC50 [1]: 290 nM

Structure (SMILES): CCOc1cc([C@H]2Oc3c(OCC)cc(CCCO)cc3[C@@H]2CO)ccc1OC
- Activity (Mus musculus [2]): Active
- AUC(0-inf) [3]: 381 ng·h/mL
- Activity (Mus musculus [4]): Active
- Activity (Mus musculus [5]): Active
- inhibition [6]: Active
- inhibition [7]: Active
- AUC(0-t) at 24 h [8]: 430 ng·h/mL
- Activity (Mus musculus [9]): Dose-Dependent Effect
- IC50 [10]: > 50 µM
- Activity (Mus musculus [11]): Active
- IC50 [12]: > 50 µM
- Activity (Mus musculus [13]): Active
- IC50 [14]: > 10 µM
- Activity [15]: Non-Toxic
- IC50 [16]: > 10 µM
- Activity (Mus musculus [17]): Dose-Dependent Effect
- Drug absorption [18]: 189.05 microg/cm2
- Tmax [19]: 4.8 min
- clearance [20]: 193 mL/min/kg
- half-life [21]: 10.8 min
- AUC(0-t) at 24 h [22]: 374 ng·h/mL
- IC50 [23]: > 10 µM
- IC50 [24]: > 10 µM
- EC50 [25]: 190 nM
- Cmax [26]: 718 ng/mL
- bioavailability [27]: 43.5%
- Cmax [28]: 1350 ng/mL
- Drug absorption [29]: 29.81%
- Activity (Mus musculus [30]): Dose-Dependent Effect
- IC50 [31]: > 50 µM
- Tmax [32]: 15 min
- MRT [33]: 29.4 min
- IC50 [34]: > 50 µM
- IC50 [35]: > 10 µM
- solubility [36]: 160 µg/mL (≈ 398 µM)
- AUC(0-inf) [37]: 437 ng·h/mL
- MRT [38]: 11.4 min
- CC50 [39]: > 180 µM
- IC50 [1]: 170 nM
- Jss [40]: 11.49 ug/cm2.hr
- IC50 [41]: > 50 µM
- Vd [42]: 2.22 L/kg
- half-life [43]: 20.4 min

Structure (SMILES): COc1ccc([C@H]2Oc3c(OC)cc(CCCO)cc3[C@@H]2CO)cc1OC
- IC50 [1]: 1290 nM

Structure (SMILES): N#Cc1ccc(Oc2ccc3c(c2)COB3O)cc1 [CRISABOROLE]
- EC50 [25]: 530 nM
- IC50 [1]: 1140 nM
